Measurements reported in ChEMBL document CHEMBL1157212, “Classification of estrogen receptor-beta ligands on the basis of their binding affinities using support vector machine and linear discriminant analysis” (Eur J Med Chem, 2008).
pIC50: −log10 of the molar value.

Each compound was assayed against Estrogen receptor beta (Homo sapiens, UniProt Q92731).
Estrogen receptor beta, sequence (Q92731 whole entry): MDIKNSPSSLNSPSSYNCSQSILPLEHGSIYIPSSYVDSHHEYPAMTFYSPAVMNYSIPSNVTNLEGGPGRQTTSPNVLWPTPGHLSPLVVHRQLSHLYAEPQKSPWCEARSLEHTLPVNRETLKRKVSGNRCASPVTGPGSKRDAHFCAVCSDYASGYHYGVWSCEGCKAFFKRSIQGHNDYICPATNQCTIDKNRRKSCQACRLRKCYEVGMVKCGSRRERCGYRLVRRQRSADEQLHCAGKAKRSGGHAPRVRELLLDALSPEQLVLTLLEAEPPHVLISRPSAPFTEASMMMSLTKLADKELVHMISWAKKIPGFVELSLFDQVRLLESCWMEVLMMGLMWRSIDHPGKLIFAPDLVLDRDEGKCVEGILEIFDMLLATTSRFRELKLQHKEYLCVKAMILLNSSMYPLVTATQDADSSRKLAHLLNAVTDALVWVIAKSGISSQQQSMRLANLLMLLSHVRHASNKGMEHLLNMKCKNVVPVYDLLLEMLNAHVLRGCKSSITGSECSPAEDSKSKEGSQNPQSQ
Description: Binding affinity to ERbeta

| pIC50 | Compound |
| --- | --- |
| 5.30 | O=C(O)c1cc(O)cc2nc(-c3ccc(O)cc3)oc12 |
| 6.85 | C/C=C/c1cc(O)cc2nc(-c3ccc(O)cc3)oc12 |
| 8.85 | Oc1ccc(-c2nc3cc(O)cc(Br)c3o2)c(C(F)(F)F)c1 |
